Experimental data taken from patent US11111375B2, “Compositions and methods for generating oligodendrocyte precursors” (The Regents of the University of California, priority 2015, dated 2021).

How the values were obtained:
H9 hESCs = test: Preliminary comparison of SHH and SAG for early OPC differentiation (ICC); assay type: cell-based, human; conditions: 3D, 13 days
Protocol: Following expansion, hPSCs were cultured in early OPC differentiation medium as described in FIG. 4A and fed daily with neural induction medium. Briefly, cells were first patterned with the dual-SMAD inhibitors LDN193189 and SB431542, and then ventralized using SHH or SAG. In some conditions, cells were caudalized using RA. On day 11 of the differentiation, cell-aggregates were split at a 1 to 3 ratio, broken into smaller-size aggregates by gentle pipetting (up and down, 10-15 times), re-encapsulated in the thermoresponsive gel, and fed with OPC proliferation medium. O1 ng/mL of FGF-2 (Peprotech) was then added to the OPC proliferation media described in FIG. 7A (added daily from day 14 until day 18, or from day 20 until day 24 of the differentiation). After FGF treatment, cells were fed every 2-3 days with OPC maturation medium, which included 20 μg/mL of L-Ascorbic Acid (Sigma) from day 75 until day 95. […]
For ICC analysis of cells differentiated in 3D, cell-spheres were transferred onto poly-D-lysine (10 μg/mL) and laminin (10 μg/mL)-coated glass-bottom plates, and incubated with their respective medium to enable cell spreading. […] Image Xpress Micro (IXM) was used for ICC quantification analysis, and Zeiss LSM 710 Axio Observer was used for confocal imaging. Images were analyzed using ImageJ and quantified using CellProfiler.

H9 cells = test: ICC of OPC maturation markers (O4, SOX10, NKX2.2, OLIG2) in H9 cells; assay type: cell-based, human
Protocol: Following expansion, hPSCs were cultured in early OPC differentiation medium as described in FIG. 4A and fed daily with neural induction medium. Briefly, cells were first patterned with the dual-SMAD inhibitors LDN193189 and SB431542, and then ventralized using SHH or SAG. In some conditions, cells were caudalized using RA. On day 11 of the differentiation, cell-aggregates were split at a 1 to 3 ratio, broken into smaller-size aggregates by gentle pipetting (up and down, 10-15 times), re-encapsulated in the thermoresponsive gel, and fed with OPC proliferation medium. O1 ng/mL of FGF-2 (Peprotech) was then added to the OPC proliferation media described in FIG. 7A (added daily from day 14 until day 18, or from day 20 until day 24 of the differentiation). After FGF treatment, cells were fed every 2-3 days with OPC maturation medium, which included 20 μg/mL of L-Ascorbic Acid (Sigma) from day 75 until day 95. See FIG. 20 for a detailed description of the differentiation conditions.
For ICC analysis of cells differentiated in 3D, cell-spheres were transferred onto poly-D-lysine (10 μg/mL) and laminin (10 μg/mL)-coated glass-bottom plates, and incubated with their respective medium to enable cell spreading. After 48 hr (for early OPC differentiation) or 5 days (for late stage OPC analysis), cells were fixed with 4% PFA for 15 min at RT. After one wash with PBS, cells were incubated overnight at 4° C. with primary antibody in freshly prepared staining primary solution (5% donkey serum, (DS), 2% bovine serum albumin (BSA) and 0.25% Triton X-100 in PBS). Then, cells were gently washed twice with PBS, and incubated for 2 hr at room temperature (RT) with secondary antibodies and 4′,6-diamidino-2-phenylindole (DAPI) (1:1000) in freshly prepared secondary staining solution (2% DS, 2% BSA and 0.25% Triton X-100 in PBS). Cells were then washed three times with PBS and imaged using a Zeiss Axio Observer epi-fluorescent microscope. Image Xpress Micro (IXM) was used for ICC quantification analysis, and Zeiss LSM 710 Axio Observer was used for confocal imaging. Images were analyzed using ImageJ and quantified using CellProfiler.

[1] = early FGF treatment: FGF-2 daily day 14 to day 18

## CNC1CCC(N(Cc2cccc(-c3ccncc3)c2)C(=O)c2sc3ccccc3c2Cl)CC1 (centres unmarked) [SAG]
H9 hESCs
  differences in NKX2.2 and OLIG2 expression, SHH vs SAG: only minor differences

## FGF-2: basic fibroblast growth factor-2 added to OPC proliferation medium
H9 cells; FGF-2 from days 20-24, day 95
  fewer O4+ OPCs than with early FGF treatment: ~4 fold
H9 cells; [1]
  OPC differentiation on day 24 versus analogous condition without FGF: similar
  number of cells expressing O4 by day 95: increased

## Vitamin D [reference compound]
H9 cells; 0.1 μM from day 66 to day 95, H9 hESCs, condition 6 and early FGF
  O4 expression among treated cells: no increase
